# Counter-ions that a name gives are not always drawn.
# What was measured:
# Format in all cases: in vivo
# mice = assay: Acetic acid-induced writhing response in mice; settings: ig 40 mg/kg, 12 days
# Description: Fifty Kunming mice, half male and half female, weighing 18-22 g each, were selected and randomly divided into five groups, namely, model control group, aspirin group, rhein sodium group, rhein glucosamine large dose group and small dose group, 10 mice for each group. The mice were administered with medicine by intragastric administration every day, 0.2 ml/10 g body weight, once every day, and administered for 12 days in succession. After the final administration of medicines, 30 minutes later, test was carried on according to the methods in the literature [Xu Shuyun, Methodology in Pharmacological Experiment (the 1st version): 882]. The inhibiting rate for writhing response was calculated.
# diabetic rats = assay: Diabetic nephrosis of obese diabetic rats (high-fat high-sugar diet plus STZ); settings: six months, ig 65 mg/kg
# Description: Animal model of diabetic rats: after one month of high-fat high-sugar diet, the rats (about 180 g) were injected by sub-pathogenic dose (25 mg/kg) of streptozotocin (STZ) to induce the occurrence of diabetes. The model has the characteristics of moderate hyperglycemia, hyperlipidemia and insulin resistance as well as pathological changes of typical diabetic nephrosis.
# • 1. Conventional feedstuff control group: distilled water. • 2. Diabetes model group: distilled water. • 3. Rhein lysine diabetes treatment group: a month after STZ injection, rhein lysine complex [prepared with distilled water, intragastric infusion for rats according to 90 mg/kg (0.209 mmol/kg) dose] was administered referred to treatment group 1. • 4. Rhein sodium diabetes treatment group: a month after STZ injection, rhein sodium [prepared with distilled water, intragastric infusion for rats, according to 65 mg/kg (0.212 mmol/kg) dose] was administered, referred to treatment group 2. • 5. Rhein lysine diabetes prevention group: one week after STZ injection, rhein lysine conjugates were administered [prepared with distilled water and intragastric infusion for rats, according to 90 mg/kg (0.209 mmol/kg) dose], referred to prevention group 1. • 6. Rhein sodium diabetes prevention group: one week after STZ injection, rhein sodium were administered [prepared with distilled water and intragastric infusion for rats, according to 65 mg/kg (0.212 mmol/kg ) dose], referred to prevention group 2.
# [1] = tested on: obese rats of high-fat and high-sugar diet; assay: Body weight of obese rats of high-fat and high-sugar diet; settings: Group E
# Source text: Group A: conventional diet, 4 weeks later, started to carry on intragastric administration, and the same volume of distilled water as the control, once daily, three weeks in succession.
# Group B: high-fat high-sugar diet, 4 weeks later, started to carry on intragastric administration, and the same volume of distilled water as the model control, once daily, three weeks in succession.
# Group C: high-fat high-sugar diet, 4 weeks later, started to carry on intragastric administration of rhein lysine conjugates [dose: 90 mg/kg (0.209 mmol/kg), prepared by distilled water], once daily, three weeks in succession.
# Group D: high-fat high-sugar diet, 4 weeks later, started to carry on intragastric administration of rhein lysine conjugates [dose: 45 mg/kg (0.105 mmol/kg), prepared by distilled water], once daily, three weeks in succession.
# Group E: high-fat high-sugar diet, 4 weeks later, started to carry on intragastric administration of rhein sodium [dose: 65 mg/kg (0.212 mmol/kg), prepared by distilled water], once daily, three weeks in succession.
# [2] = tested on: rabbits' ear marginal veins; assay: Safety of hydro-acupuncture injection: irritation of rabbits' ear marginal vein; settings: rabbit, in vivo
# Source text: In rabbits' ear marginal vein aseptic operation, rhein sodium salt, rhein arginine conjugates and 0.9% sodium chloride injection liquid were slowly filled into the veins respectively every two days for three consecutive times.
structure (smiles),measurement,setting,value
"O=C(O)c1cc(O)c2c(c1)C(=O)c1cccc(O)c1C2=O [Rhein sodium salt, rhein sodium salt]",Inhibiting rate,mice,37.7%
same,Times of writhing,mice,20.1 ± 8.9 per/20 min
same,Urine protein,diabetic rats; preventive administration from one week after STZ,11.54 ± 2.98 mg/24 h
same,Kidney weight index (double kidney weight/body weight × 10^4),diabetic rats; preventive administration,5.21 ± 0.68
same,Serum total cholesterol,diabetic rats; preventive administration,2.89 ± 0.31 mM
same,Serum triacylglycerol,diabetic rats; preventive administration,1.68 ± 0.45
same,Steady blood sugar level,diabetic rats; preventive administration,6.7 ± 0.8 mmol/L
same,Steady insulin level,diabetic rats; preventive administration,72.6 ± 3.6 uU/ml
same,Weight,diabetic rats; preventive administration,243 ± 12 g
same,blood sugar,diabetic rats; preventive administration,15.08 ± 5.7 mmol/L
same,Urine protein,diabetic rats; treatment from a month after STZ,16.15 ± 7.71 mg/24 h
same,Kidney weight index (double kidney weight/body weight × 10^4),diabetic rats; treatment,6.9 ± 0.83
same,Serum total cholesterol,diabetic rats; treatment,3.71 ± 0.63 mM
same,Serum triacylglycerol,diabetic rats; treatment,1.66 ± 0.47
same,Steady blood sugar level,diabetic rats; treatment,5.9 ± 0.8 mmol/L
same,Steady insulin level,diabetic rats; treatment,81 ± 4.5 uU/ml
same,Weight,diabetic rats; treatment,229 ± 16 g
same,blood sugar,diabetic rats; treatment,17.3 ± 3.3 mmol/L
same,The body weight increased 7 weeks after high-sugar high-fat diet,[1]; after three weeks ig 65 mg/kg once daily,17.1 ± 4.1 g
same,The body weight increased 4 weeks after high-sugar high-fat diet,[1]; before start of ig 65 mg/kg,15.8 ± 4.3 g
same,biopsy of rabbits' ear marginal vein,[2],"slight with partial endothelial cell necrosis and abscission, and inflammatory response of the surrounding tissues"
same,irritation on rabbits' ear marginal veins,[2],has irritation
